{"source": "the supplement of paper PMC10627819", "experiment_in_all_cases": "Bliss interaction score (quartile over a dose matrix) (fitness difference); higher = more antagonism (negative = synergy)", "key": {"B. subtilis 168": {"system": "B. subtilis 168", "procedure,_shortened": "(§1)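 Quartiles summarise the Bliss score over technical, biological and donor/recipient replicates, where the score is observed minus expected fitness under a product model. Expected fitness uses single-drug values inferred from combination data. Fitness is OD595 at entry into stationary phase over the plate's robust no-drug mean, capped at 1.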"}, "S. aureus DSM 20231": {"system": "S. aureus DSM 20231", "procedure,_shortened": "as §1"}, "S. aureus Newman": {"system": "S. aureus Newman", "procedure,_shortened": "as §1"}, "S. pneumoniae D39V": {"system": "S. pneumoniae D39V", "procedure,_shortened": "as §1"}}}
{"smiles": "CC(=O)OC[C@H]1O[C@@H]([S-])[C@H](OC(C)=O)[C@@H](OC(C)=O)[C@@H]1OC(C)=O.CCP(CC)CC.[Au+]", "note": "[Auranofin] + C1=CC(=CC(=C1)Cl)NN=C(C#N)C#N [CCCP]", "values": [{"measurement": "Bliss interaction score", "setting": "B. subtilis 168", "value": 0.0372}, {"measurement": "Bliss interaction score", "setting": "S. aureus DSM 20231", "value": 0.0194}, {"measurement": "Bliss interaction score", "setting": "S. aureus Newman", "value": 0.0798}, {"measurement": "Bliss interaction score", "setting": "S. pneumoniae D39V", "value": 0.0425}]}
{"smiles": "CC(=O)OC[C@H]1O[C@@H]([S-])[C@H](OC(C)=O)[C@@H](OC(C)=O)[C@@H]1OC(C)=O.CCP(CC)CC.[Au+]", "note": "[Auranofin] + C/C(=C\\C(=O)OCCCCCCCCC(=O)O)C[C@@H]1OC[C@H](C[C@@H]2O[C@H]2[C@@H](C)[C@H](C)O)[C@@H](O)[C@H]1O [Pseudomonic acid]", "values": [{"measurement": "Bliss interaction score", "setting": "B. subtilis 168", "value": 0.0268}, {"measurement": "Bliss interaction score", "setting": "S. aureus DSM 20231", "value": 0.0133}, {"measurement": "Bliss interaction score", "setting": "S. aureus Newman", "value": 0.0254}, {"measurement": "Bliss interaction score", "setting": "S. pneumoniae D39V", "value": 0.081}]}
{"smiles": "CC(=O)OC[C@H]1O[C@@H]([S-])[C@H](OC(C)=O)[C@@H](OC(C)=O)[C@@H]1OC(C)=O.CCP(CC)CC.[Au+]", "note": "[Auranofin] + CC1(C)S[C@@H]2[C@H](NC(=O)Cc3ccccc3)C(=O)N2[C@H]1C(=O)O [PenicillinG]", "values": [{"measurement": "Bliss interaction score", "setting": "B. subtilis 168", "value": -0.0513}, {"measurement": "Bliss interaction score", "setting": "S. aureus DSM 20231", "value": 0.0414}, {"measurement": "Bliss interaction score", "setting": "S. aureus Newman", "value": -0.0443}, {"measurement": "Bliss interaction score", "setting": "S. pneumoniae D39V", "value": 0.0454}]}
{"smiles": "CC(=O)OC[C@H]1O[C@@H]([S-])[C@H](OC(C)=O)[C@@H](OC(C)=O)[C@@H]1OC(C)=O.CCP(CC)CC.[Au+]", "note": "[Auranofin] + CC1=C(C(=O)O)N2C(=O)[C@@H](NC(=O)[C@H](N)c3ccccc3)[C@H]2SC1 [Cephalexin]", "values": [{"measurement": "Bliss interaction score", "setting": "B. subtilis 168", "value": -0.0587}, {"measurement": "Bliss interaction score", "setting": "S. aureus DSM 20231", "value": -0.0272}, {"measurement": "Bliss interaction score", "setting": "S. aureus Newman", "value": -0.0291}, {"measurement": "Bliss interaction score", "setting": "S. pneumoniae D39V", "value": -0.101}]}
{"smiles": "CC(=O)OC[C@H]1O[C@@H]([S-])[C@H](OC(C)=O)[C@@H](OC(C)=O)[C@@H]1OC(C)=O.CCP(CC)CC.[Au+]", "note": "[Auranofin] + CC1=C\\[C@@H](O)CC(=O)Cc2nc(co2)C(=O)N2CCC=C2C(=O)O[C@H](C(C)C)[C@H](C)/C=C/C(=O)NC\\C=C\\1 [Virginiamycin M1]", "values": [{"measurement": "Bliss interaction score", "setting": "B. subtilis 168", "value": -0.0329}, {"measurement": "Bliss interaction score", "setting": "S. aureus DSM 20231", "value": -0.0753}, {"measurement": "Bliss interaction score", "setting": "S. aureus Newman", "value": -0.0212}, {"measurement": "Bliss interaction score", "setting": "S. pneumoniae D39V", "value": 0.0585}]}
{"smiles": "CC(=O)OC[C@H]1O[C@@H]([S-])[C@H](OC(C)=O)[C@@H](OC(C)=O)[C@@H]1OC(C)=O.CCP(CC)CC.[Au+]", "note": "[Auranofin] + CC(=O)NC[C@H]1CN(c2ccc(N3CCOCC3)c(F)c2)C(=O)O1 [Linezolid]", "values": [{"measurement": "Bliss interaction score", "setting": "B. subtilis 168", "value": -0.0379}, {"measurement": "Bliss interaction score", "setting": "S. aureus DSM 20231", "value": 0.0191}, {"measurement": "Bliss interaction score", "setting": "S. aureus Newman", "value": 0.067}, {"measurement": "Bliss interaction score", "setting": "S. pneumoniae D39V", "value": -0.104}]}
{"smiles": "CC(=O)OC[C@H]1O[C@@H]([S-])[C@H](OC(C)=O)[C@@H](OC(C)=O)[C@@H]1OC(C)=O.CCP(CC)CC.[Au+]", "note": "[Auranofin] + CC(=O)O[C@H]1C[C@@]2(C)[C@@H](C[C@@H](O)[C@H]3[C@@]4(C)CC[C@@H](O)[C@@H](C)[C@@H]4CC[C@@]32C)/C1=C(\\CCC=C(C)C)C(=O)O [Fusidic acid]", "values": [{"measurement": "Bliss interaction score", "setting": "B. subtilis 168", "value": 0.0389}, {"measurement": "Bliss interaction score", "setting": "S. aureus DSM 20231", "value": 0.019}, {"measurement": "Bliss interaction score", "setting": "S. aureus Newman", "value": 0.0311}, {"measurement": "Bliss interaction score", "setting": "S. pneumoniae D39V", "value": -0.0761}]}
{"smiles": "CC(=O)OC[C@H]1O[C@@H]([S-])[C@H](OC(C)=O)[C@@H](OC(C)=O)[C@@H]1OC(C)=O.CCP(CC)CC.[Au+]", "note": "[Auranofin] + CC(C1CCC(C(O1)OC2C(CC(C(C2O)OC3C(C(C(CO3)(C)O)NC)O)N)N)N)NC [Gentamicin]", "values": [{"measurement": "Bliss interaction score", "setting": "B. subtilis 168; main component drawn", "value": -0.0544}, {"measurement": "Bliss interaction score", "setting": "S. aureus DSM 20231; main component drawn", "value": 0.0359}, {"measurement": "Bliss interaction score", "setting": "S. aureus Newman; main component drawn", "value": 0.0898}, {"measurement": "Bliss interaction score", "setting": "S. pneumoniae D39V; main component drawn", "value": -0.0834}]}
{"smiles": "CC(=O)OC[C@H]1O[C@@H]([S-])[C@H](OC(C)=O)[C@@H](OC(C)=O)[C@@H]1OC(C)=O.CCP(CC)CC.[Au+]", "note": "[Auranofin] + CCC(C)C1C(=O)NC(=C)C(=O)NC(C(=O)NC(CSCC(C(=O)N1)NC(=O)/C(=C/C)/NC(=O)C(C(C)CC)N)C(=O)NC2C(SCC(NC(=O)CNC(=O)C3CCCN3C2=O)C(=O)NC(CCCCN)C(=O)NC4C(SCC(NC(=O)CNC(=O)C(NC(=O)C(NC(=O)C(NC(=O)CNC4=O)C)CC(C)C)CCSC)C(=O)NC(CC(=O)N)C(=O)NC(CCSC)C(=O)NC(CCCCN)C(=O)NC5C(SCC6C(=O)NC(C(=O)NC(CSC(C(C(=O)N6)NC(=O)C(NC5=O)C)C)C(=O)NC(CO)C(=O)NC(C(C)CC)C(=O)NC(CC7=CN=CN7)C(=O)NC(C(C)C)C(=O)NC(=C)C(=O)NC(CCCCN)C(=O)O)CC8=CN=CN8)C)C)C)CC(C)C [Nisin]", "values": [{"measurement": "Bliss interaction score", "setting": "B. subtilis 168; main component drawn", "value": -0.0321}, {"measurement": "Bliss interaction score", "setting": "S. aureus DSM 20231; main component drawn", "value": -0.0361}, {"measurement": "Bliss interaction score", "setting": "S. aureus Newman; main component drawn", "value": 0.0274}, {"measurement": "Bliss interaction score", "setting": "S. pneumoniae D39V; main component drawn", "value": -0.0798}]}
{"smiles": "CC(=O)OC[C@H]1O[C@@H]([S-])[C@H](OC(C)=O)[C@@H](OC(C)=O)[C@@H]1OC(C)=O.CCP(CC)CC.[Au+]", "note": "[Auranofin] + CCCCCCCCCC(=O)N[C@@H]1[C@H]([C@@H]([C@H](O[C@H]1OC2=C3C=C4C=C2OC5=C(C=C(C=C5)[C@H]([C@H]6C(=O)N[C@@H](C7=C(C(=CC(=C7)O)OC8[C@H]([C@H]([C@@H]([C@H](O8)CO)O)O)O)C9=C(C=CC(=C9)[C@H](C(=O)N6)NC(=O)[C@@H]4NC(=O)[C@@H]1C2=CC(=CC(=C2)OC2=C(C=CC(=C2)[C@H](C(=O)N[C@H](CC2=CC(=C(O3)C=C2)Cl)C(=O)N1)N)O)O)O)C(=O)O)O[C@H]1[C@@H]([C@H]([C@@H]([C@H](O1)CO)O)O)NC(=O)C)Cl)CO)O)O [Teicoplanin]", "values": [{"measurement": "Bliss interaction score", "setting": "B. subtilis 168; main component drawn", "value": -0.0433}, {"measurement": "Bliss interaction score", "setting": "S. aureus DSM 20231; main component drawn", "value": 0.0469}, {"measurement": "Bliss interaction score", "setting": "S. aureus Newman; main component drawn", "value": 0.0303}, {"measurement": "Bliss interaction score", "setting": "S. pneumoniae D39V; main component drawn", "value": 0.0761}]}
